Values of other authors, collected in patent US20240024490A1, “BIFUNCTIONAL MOLECULES FOR SELECTIVE MODIFICATION OF TARGET SUBSTRATES” (The Broad Institute, Inc., priority 2021, published 2024).
Where two headings read alike, the source gives them in different places.

How the values were obtained:
[1] = tested on: CD138-purified multiple myeloma (MM) cells from patients; conditions: cited from earlier work
RIPK-1 = RIPK-1 (Homo sapiens, UniProt Q13546); conditions: cited from earlier work
[2] = in vivo; cited from earlier work
p-ERK1/2 = conditions: cited from earlier work
MCF-7 (breast) = conditions: cited from earlier work
KU-19-19 (bladder) = conditions: cited from earlier work
BT-474 (breast) = conditions: cited from earlier work
C26 = conditions: cited from earlier work
[3] = cited from earlier work
[4] = tested on: screening panel of kinases; conditions: 1000 nM EAI045; cited from earlier work
[5] = tested on: EGFR(L858R/T790M/C797S) tumors; conditions: in vivo; cited from earlier work
FGFR2 = conditions: read-out: IC50, FGF1-induced ERK phosphorylation via FGFR2; cited from earlier work
[6] = tested on: LPS-stimulated THP-1 cells; conditions: read-out: IC50, block of TNFα release; cited from earlier work
NCI-H441 cells [7] = conditions: read-out: phosphor-MET IC50; cited from earlier work
NCI-H441 cells [8] = conditions: read-out: viability IC50; cited from earlier work
NCI-H441 cells [9] = conditions: read-out: Invasion IC50; cited from earlier work
c-Met = biological target: T1, c-Met (Homo sapiens, UniProt P08581); conditions: cited from earlier work
T1 construct: host or cells: NCI-H441 (as the sentence says)

Z138 = conditions: read-out: IC50, proliferation; cited from earlier work
[10] = tested on: Molt-4 (T cell acute lymphoblastic leukemia) xenografts; conditions: SCID mice; cited from earlier work
Nalm6 = conditions: cited from earlier work
KOPN-8 = conditions: cited from earlier work
OP-1 = conditions: cited from earlier work
ICN13 = conditions: cited from earlier work
SEM cells = conditions: cited from earlier work
RS4 = conditions: cited from earlier work
LAX7R = conditions: cited from earlier work
MS751 cervical carcinoma = conditions: read-out: IC50, proliferation; cited from earlier work
REH = conditions: cited from earlier work
697 cells = conditions: cited from earlier work
LAX2 = conditions: cited from earlier work
SupB15 = conditions: cited from earlier work
PTK2 = conditions: prostate cancer cells; read-out: IC50, autophosphorylation of PTK2; cited from earlier work
Crk-L = conditions: cited from earlier work
[11] = cited from earlier work; remark: listed apart in the source

T1 sequence (P08581 25-1390): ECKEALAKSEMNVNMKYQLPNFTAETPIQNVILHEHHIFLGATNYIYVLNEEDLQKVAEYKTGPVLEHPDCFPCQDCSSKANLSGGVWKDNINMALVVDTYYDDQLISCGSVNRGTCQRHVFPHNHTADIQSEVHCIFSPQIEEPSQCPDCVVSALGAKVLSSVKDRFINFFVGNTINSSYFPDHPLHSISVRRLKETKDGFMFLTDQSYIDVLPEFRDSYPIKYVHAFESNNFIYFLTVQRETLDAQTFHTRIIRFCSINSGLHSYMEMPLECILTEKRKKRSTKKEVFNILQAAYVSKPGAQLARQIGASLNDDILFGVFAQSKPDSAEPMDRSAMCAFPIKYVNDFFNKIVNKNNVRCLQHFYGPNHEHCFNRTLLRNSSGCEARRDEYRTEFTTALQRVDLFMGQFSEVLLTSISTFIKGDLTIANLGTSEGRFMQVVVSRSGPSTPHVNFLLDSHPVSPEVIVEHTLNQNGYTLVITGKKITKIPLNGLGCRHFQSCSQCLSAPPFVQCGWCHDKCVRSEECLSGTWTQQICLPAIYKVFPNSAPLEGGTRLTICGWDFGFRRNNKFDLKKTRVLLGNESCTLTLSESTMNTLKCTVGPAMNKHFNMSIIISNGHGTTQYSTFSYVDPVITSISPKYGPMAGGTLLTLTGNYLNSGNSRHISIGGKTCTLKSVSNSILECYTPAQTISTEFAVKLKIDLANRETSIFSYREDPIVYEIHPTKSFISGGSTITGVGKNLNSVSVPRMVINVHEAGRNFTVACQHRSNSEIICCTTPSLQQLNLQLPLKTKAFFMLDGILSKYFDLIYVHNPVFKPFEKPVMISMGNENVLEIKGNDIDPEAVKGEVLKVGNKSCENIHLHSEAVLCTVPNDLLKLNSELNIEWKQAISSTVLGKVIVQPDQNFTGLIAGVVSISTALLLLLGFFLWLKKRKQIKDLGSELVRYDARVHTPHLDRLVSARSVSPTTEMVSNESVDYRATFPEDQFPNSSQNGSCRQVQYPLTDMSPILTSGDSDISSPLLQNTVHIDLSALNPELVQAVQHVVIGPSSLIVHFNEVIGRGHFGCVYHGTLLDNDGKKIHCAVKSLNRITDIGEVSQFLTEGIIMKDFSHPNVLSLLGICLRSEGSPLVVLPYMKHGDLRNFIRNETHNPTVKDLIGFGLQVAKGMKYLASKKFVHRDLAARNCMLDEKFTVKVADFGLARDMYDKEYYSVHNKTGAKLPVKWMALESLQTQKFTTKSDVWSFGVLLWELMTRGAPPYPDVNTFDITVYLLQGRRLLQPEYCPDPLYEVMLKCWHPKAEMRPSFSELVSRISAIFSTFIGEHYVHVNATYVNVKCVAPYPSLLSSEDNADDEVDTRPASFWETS
RIPK-1, sequence (Q13546 whole entry, species assumed): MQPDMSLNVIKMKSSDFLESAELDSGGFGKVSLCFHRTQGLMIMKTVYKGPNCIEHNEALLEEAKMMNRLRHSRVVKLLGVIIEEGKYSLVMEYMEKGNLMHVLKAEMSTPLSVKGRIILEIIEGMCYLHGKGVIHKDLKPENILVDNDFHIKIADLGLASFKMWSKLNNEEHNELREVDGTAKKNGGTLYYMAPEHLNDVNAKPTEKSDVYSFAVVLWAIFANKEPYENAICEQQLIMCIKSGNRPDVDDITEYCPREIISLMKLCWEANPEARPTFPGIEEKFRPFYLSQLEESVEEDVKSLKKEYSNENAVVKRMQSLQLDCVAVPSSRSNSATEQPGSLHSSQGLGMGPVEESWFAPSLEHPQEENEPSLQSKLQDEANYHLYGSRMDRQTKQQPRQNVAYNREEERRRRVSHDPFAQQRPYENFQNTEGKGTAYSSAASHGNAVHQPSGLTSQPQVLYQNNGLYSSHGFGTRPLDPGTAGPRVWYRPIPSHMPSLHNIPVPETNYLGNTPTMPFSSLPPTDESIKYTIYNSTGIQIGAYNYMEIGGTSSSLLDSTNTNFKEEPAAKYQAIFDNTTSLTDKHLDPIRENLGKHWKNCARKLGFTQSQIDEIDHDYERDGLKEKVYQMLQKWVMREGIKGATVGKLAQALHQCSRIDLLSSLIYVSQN

In the case of `O=C(NC[C@H](O)CO)c1ccncc1Nc1ccc(I)cc1F` [Pimasertib], the IC50 [1] is given as 2 to 200 nM.

In the case of `CCC(C)(C)C(=O)N(O)Cc1ccccc1` [RIPA-56], the pIC50 (RIPK-1) is listed as 7.9.

For `CC(=O)Nc1cccc(-n2c(=O)n(C3CC3)c(=O)c3c(Nc4ccc(I)cc4F)n(C)c(=O)c(C)c32)c1` [Trametinib, Trametnib], the “Absorption/distribution of an oral dose” value [2] is listed as 72% and the “sustained suppression of p-ERK1/2” value (p-ERK1/2) is listed as “more than 24 hours”.

In the case of `C=CC(=O)Nc1ccc2[nH]c(=O)n(C3CCN(Cc4ccc(-c5nc6cc[nH]c(=O)c6cc5-c5ccccc5)cc4)CC3)c2c1` [Borussertib], the EC50 (MCF-7 (breast)) is given as 277 ± 90 nM, the EC50 (KU-19-19 (bladder)) is given as 7770 ± 641 nM and the EC50 (BT-474 (breast)) is given as 373 ± 54 nM.

For `O=C(NOCC1CC1)c1ccc(F)c(F)c1Nc1ccc(I)cc1Cl` [24 (CI-1040), CI-1040], the IC50 (C26) is listed as 35 nM and the “Sol (pH 6.5)” value [3] is listed as less than 1 μg/mL.

In the case of `O=C(Nc1nccs1)C(c1cc(F)ccc1O)N1Cc2ccccc2C1=O` (stereo not shown) [EAI045], the “inhibition of any other kinases in screening panels” value [4] is listed as no more than 20% and the “efficacy in xenograft models” value [5] is listed as “effective”.

For `COc1c(C)c(C(=O)c2ccc(N)c(C(=O)O)c2)n2ccccc12` [SSR128129E], the IC50 (FGFR2) is given as less than 100 nM.

In the case of `Cc1ccc(-n2nc(C(C)(C)C)cc2NC(=O)Nc2ccc(OCCN3CCOCC3)c3ccccc23)cc1` [Doramapimod], the IC50 [6] is listed as 18 nM.

For `O=C1NC(=O)[C@@H](c2cn3c4c(cccc24)CCC3)[C@@H]1c1c[nH]c2ccccc12` [tivantinib], the IC50 (NCI-H441 cells [7]) is listed as 100 nM, the IC50 (NCI-H441 cells [8]) is listed as 100 nM and the IC50 (NCI-H441 cells [9]) is listed as 80 nM. For the same compound, the pKi (c-Met) was 6.4, the “selectivity for c-Met over other kinases tested” value (c-Met) was 10-100 time and the IC50 (c-Met; read-out: Enzyme IC50) was 50 nM.

For `Nc1ccc(/C=C/C(=O)NCc2cc3cc(-c4ccc(C(=O)N5CCC(F)(F)CC5)cc4)cc(-c4ccc(F)cc4)c3o2)cn1` [KPT-9274], the IC50 (Z138) is listed as less than 100 nM, the effect on xenografts [10] is listed as “induces shrinkage” and the IC50 (Nalm6) is listed as 19 nM. The IC50 (KOPN-8) was 2.4 nM, the IC50 (OP-1) was 18 nM and the IC50 (ICN13) was 25.9 nM. The IC50 (SEM cells) was greater than 10000 nM, the IC50 (RS4) was 5.6 nM and the IC50 (LAX7R) was 32.7 nM. For the same compound, the IC50 (MS751 cervical carcinoma) was less than 100 nM, the IC50 (REH) was 14.3 nM and the IC50 (697 cells) was 16.7 nM. For the same compound, the IC50 (LAX2) was 19.4 nM and the IC50 (SupB15) was 22.6 nM.

For `CN1c2ccc(NCc3ccc(C(C)(C)C)cc3)cc2-c2c(cnn2C)S1(=O)=O` [compound 30], the IC50 (PTK2) is given as 7100 nM.

In the case of `N#CCCC(=O)NC1=NN(c2ccc(Cl)c(Cl)c2)CC1` [compound 32], the “Fold Increase phCRKE Vs Total Crk-L (normalised)” value (Crk-L; 40 min) is given as 19x, the “Fold Increase phCRKE Vs Total Crk-L (normalised)” value (Crk-L; 180 min) is given as 35x and the “In Vitro Clearance” value [11] is given as less than 0.01 mL/min/mg protein.
